According to patent publication US6632824B2, “Aryl-8-azabicyclo[3.2.1]octanes for the treatment of depression” (Wyeth, priority 2001, dated 2003):
Where a name gives a salt, the structure may show the parent alone.

Tests used:
[1] = molecular target: T1, cloned human 5-HT1A receptors (Homo sapiens, UniProt P08908); assay: Assessment of agonism/antagonism at the 5-HT1A receptor using [35S]-GTPγS binding; format: biochemical
T1 construct: expressed in transfected cells
T1 sequence (P08908 1-422): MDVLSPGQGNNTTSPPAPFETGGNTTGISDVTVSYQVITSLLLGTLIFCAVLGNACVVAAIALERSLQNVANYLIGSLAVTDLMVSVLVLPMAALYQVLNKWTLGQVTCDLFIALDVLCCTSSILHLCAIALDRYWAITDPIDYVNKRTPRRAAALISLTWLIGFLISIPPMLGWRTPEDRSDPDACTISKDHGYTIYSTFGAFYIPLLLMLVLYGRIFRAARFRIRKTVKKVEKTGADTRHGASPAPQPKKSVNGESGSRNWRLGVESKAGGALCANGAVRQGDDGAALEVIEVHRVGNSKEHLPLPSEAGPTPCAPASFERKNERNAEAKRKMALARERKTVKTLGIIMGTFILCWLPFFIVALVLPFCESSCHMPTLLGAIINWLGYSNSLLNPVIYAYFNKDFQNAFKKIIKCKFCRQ
Method: Assessment of Agonism/Antagonism at the 5-HT1A Receptor using [^35S]-GTPγS Binding to Cloned Human 5-HT1A Receptors:
Briefly, 5-HT1A cloned receptor membrane fragments (as used for 5-HT1A receptor binding assays) are stored at −70° C. until needed. When needed, membranes are rapidly thawed, centrifuged at 40,000× g for 10 minutes and resuspended at 4° C. for 10 minutes in assay buffer (25 mM HEPES, 3 mM MgCl2, 100 mM NaCl, 1 mM EDTA, 10 uM GDP, […], pH 8.0). These membranes are then incubated for 30 min at 30° C. with [^35S]GTPgS (1 nM) in the presence of vehicle, test compound (one to eight concentrations), or excess 8-OH-DPAT to define maximum agonist response. All reactions are terminated by the addition of ice cold Tris buffer followed by rapid filtration using a Tom Tech® filtration device to separate bound from free [^35S]GTPgS. Agonists produce an increase in the amount of [^35S]GTPgS bound whereas antagonists produce no increase in binding. Bound radioactivity is counted and analyzed as above.

human 5-HT1A receptor = molecular target: T2, human 5-HT1A receptor (Homo sapiens, UniProt P08908); assay: HC 5-HT1A binding assay ([3H]8-OH-DPAT radioligand binding, h5-HT1A.CHO cell membranes)
T2 construct: expressed in transfected cells
T2 sequence (P08908 1-422): T1 sequence (P08908 1-422)
Method: Cloning of Human 5-HT1A Receptor:
A stable Chinese hamster ovary cell line expressing the human 5-HT1A receptor subtype (h5-HT1A.CHO cells) is employed throughout this study. Cells are maintained in DMEM supplemented with 10% fetal calf serum, non-essential amino acids and penicillin/streptomycin.
Cells are grown to 95-100% confluency as a monolayer before membranes are harvested for binding studies. Cells are gently scraped from the culture plates, transferred to centrifuge tubes, and washed twice by centrifugation (2000 rpm for 10 min., 4° C.) in buffer (50 mM Tris; pH 7.5). The resulting pellets are aliquoted and placed at −80 C. On the day of assay, the cells are thawed on ice, and resuspended in buffer. Studies are conducted using [^3H]8-OH-DPAT as the radioligand. The binding assay is performed in 96-well microtiter plates in a final total volume of […] of buffer. […] Non-specific binding is determined in the presence of 10 μM 5HT. Saturation analysis is conducted by using [^3H]8-OH-DPAT at concentrations ranging from 0.3-30 nM. Following a 30 minute incubation at room temperature, the reaction is terminated by the addition of ice cold buffer and rapid filtration using a M-96 Brandel Cell Harvester (Gaithersburg, Md.) through a GF/B filter presoaked for 30 minutes in 0.5% polyethyleneimine.
^3H-Paroxetine Binding to Assess Affinity of Drugs for the Serotonin Transporter ([…]):
(§1) Briefly, frontal cortical membranes prepared from male S.D. rats are incubated with ^3H-paroxetine (0.1 nM) for 60 min at 25° C. All tubes contain either vehicle, test compound (one to eight concentrations), or a saturating concentration of fluoxetine (10 μM) to define […]. All reactions are terminated by the addition of ice cold Tris buffer followed by rapid filtration using a Tom Tech filtration device to separate bound from free ^3H-paroxetine.

Human 5-HT Transporter = molecular target: T3, Human 5-HT Transporter (Homo sapiens, UniProt P31645); assay: Inhibition of 3H-5-HT Uptake by Cells Possessing the Human 5-HT Transporter (HC 5HT Transporter); format: cell-based
T3 construct: endogenous in cells; host or cells: JAR human carcinoma cells, treated with staurosporine
Method: On the day of assay, vehicle, excess of fluoxetine, or test compound is added to various wells on the plate. All wells then receive ^3H-5-HT and are incubated at 37° C. for 5 min. The wells are then washed with ice cold 50 mM Tris HCl (pH 7.4) buffer and aspirated to remove free ^3H-5-HT. 25 μl of 0.25 M NaOH is then added to each well to lyse the cells and 75 μl scintillation cocktail (Microscint™ 20) added prior to quantitation on a Packard TopCount machine. Tubes with vehicle represent total possible uptake; radioactivity counted in tubes with fluoxetine represent nonspecific binding/uptake and is subtracted from the total possible uptake to give total possible specific uptake. […] Specific uptake is then expressed as a % of control values and is analyzed using nonlinear regression analysis (Prizm) to determine IC50 values.

5-HT transporter = molecular target: T4, 5-HT transporter (Rattus norvegicus, UniProt P31652); assay: Rat Brain 3H-Paroxetine Binding Assay (RB 5HT Transporter)
T4 construct: frontal cortical membranes prepared from male S.D. rats; from tissue; host or cells: rat frontal cortex membranes (male Sprague-Dawley)
Method: Rat Brain ^3H-Paroxetine Binding Assay (RB 5HT Transporter):
This assay is used to determine a compound's affinity of the 5-HT transporter.
as §1, with “with ^3H-parxetine” for “with ^3H-paroxetine”, “60 min.” for “60 min”

T3 sequence (P31645 whole entry): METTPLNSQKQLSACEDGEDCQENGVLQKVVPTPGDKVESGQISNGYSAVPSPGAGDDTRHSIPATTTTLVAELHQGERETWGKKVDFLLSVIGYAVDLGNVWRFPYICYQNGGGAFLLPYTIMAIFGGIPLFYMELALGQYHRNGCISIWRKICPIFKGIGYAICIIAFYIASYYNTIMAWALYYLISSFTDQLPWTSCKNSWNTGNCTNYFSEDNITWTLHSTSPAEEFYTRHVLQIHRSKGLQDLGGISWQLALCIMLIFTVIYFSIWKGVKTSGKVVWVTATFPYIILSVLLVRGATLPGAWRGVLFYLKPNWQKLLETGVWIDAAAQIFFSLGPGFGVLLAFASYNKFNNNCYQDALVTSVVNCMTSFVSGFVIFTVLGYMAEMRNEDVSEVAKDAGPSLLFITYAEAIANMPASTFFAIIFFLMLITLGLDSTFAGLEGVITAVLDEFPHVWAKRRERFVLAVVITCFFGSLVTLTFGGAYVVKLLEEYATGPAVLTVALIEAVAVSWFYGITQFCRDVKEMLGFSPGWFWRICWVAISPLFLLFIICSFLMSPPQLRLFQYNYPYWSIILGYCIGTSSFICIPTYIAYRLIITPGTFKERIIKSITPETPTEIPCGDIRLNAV
T4 sequence (P31652 whole entry): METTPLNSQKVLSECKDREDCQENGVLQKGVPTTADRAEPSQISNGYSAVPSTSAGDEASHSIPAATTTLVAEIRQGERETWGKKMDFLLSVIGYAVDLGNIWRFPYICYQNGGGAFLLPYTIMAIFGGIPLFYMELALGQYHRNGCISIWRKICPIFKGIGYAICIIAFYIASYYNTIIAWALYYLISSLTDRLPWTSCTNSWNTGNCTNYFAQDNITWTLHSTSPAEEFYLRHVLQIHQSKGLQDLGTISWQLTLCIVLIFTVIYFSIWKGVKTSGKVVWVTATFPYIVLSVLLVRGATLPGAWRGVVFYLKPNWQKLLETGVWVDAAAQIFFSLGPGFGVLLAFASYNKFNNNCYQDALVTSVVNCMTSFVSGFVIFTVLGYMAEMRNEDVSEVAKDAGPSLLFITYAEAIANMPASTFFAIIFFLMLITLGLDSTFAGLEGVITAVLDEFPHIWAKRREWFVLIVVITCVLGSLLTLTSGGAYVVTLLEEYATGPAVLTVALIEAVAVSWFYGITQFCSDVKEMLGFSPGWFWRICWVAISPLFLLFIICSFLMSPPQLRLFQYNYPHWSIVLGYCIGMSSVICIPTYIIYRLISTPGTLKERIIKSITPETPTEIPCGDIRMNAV

COc1cc(OCCN2C3C=C(c4ccc5ccccc5c4)CC2CC3)c2ncccc2c1 (stereo not drawn) (as salt: oxalate)
melting point: 100 to 103 °C

C1=C(c2c[nH]c3ccccc23)CC2CCC1N2CCOc1cccc2ncccc12 (stereo not drawn) (as salt: oxalate) [Example 3, 2-[3-(1H-Indol-3-yl)-8-azabicyclo[3.2.1]oct-2-en-8-yl]ethyl 5-quinolinyl Ether]
melting point: 91 to 93 °C (dec.)

C1=C(c2ccc3ccccc3c2)CC2CCC1N2CCOc1cccc2c1OCCO2 (stereo not drawn) (as salt: oxalate) [Example 4, 8-[2-(2,3-Dihydro-benzo[1,4]dioxin-5-yloxy)-ethyl]-3-naphthalen-2-yl-8-aza-bicyclo[3.2.1]oct-2-ene]
melting point: 151 to 153 °C (dec.)

COc1cc(NCCN2C3C=C(c4ccc5ccccc5c4)CC2CC3)c2ncccc2c1 (stereo not drawn) (as salt: oxalate) [Example 5, 6-Methoxy-N-{2-[3-(2-naphthyl)-8-azabicyclo[3.2.1]oct-2-en-8-yl]ethyl}-8-quinolinamine]
melting point: 179 to 182 °C

COc1ccc2cc(C3=CC4CCC(C3)N4CCOc3cccc4[nH]ccc34)ccc2c1 (stereo not drawn) (as salt: oxalate) [Example 10, 4-{2-[3-(6-Methoxy-naphthalen-2-yl)-8-aza-bicyclo[3.2.1]oct-2-en-8-yl]-ethoxy}-1H-indole]
melting point: 130 to 132 °C (dec.)

FC(F)(F)c1cccc(OCCN2C3C=C(c4ccc5ccccc5c4)CC2CC3)c1 (stereo not drawn) (as salt: oxalate) [Example 11, 3-Naphthalen-2-yl-8-[2-(3-trifluoromethyl-phenoxy)-ethyl]-8-aza-bicyclo[3.2.1]oct-2-ene]
melting point: 128 to 130 °C (dec.)

c1ccc2cc(C3CC4CCC(C3)N4CCOc3cccc4[nH]ccc34)ccc2c1 (stereo not drawn) (as salt: oxalate) [Example 12, 4-[2-(3-Naphthalen-2-yl-8-aza-bicyclo[3.2.1]oct-8-yl)-ethoxy]-1H-indole]
melting point: 119 to 120 °C (dec.)

C1=C(c2c[nH]c3ccccc23)CC2CCC1N2CCOc1cccc2ncccc12 (stereo not drawn) [Example 3, 2-[3-(1H-Indol-3-yl)-8-azabicyclo[3.2.1]oct-2-en-8-yl]ethyl 5-quinolinyl Ether]
IC50 [1]: 1170 nM | Emax ([1]; excess 8-OH-DPAT defines maximum agonist response, read-out: [35S]GTPgS Emax): 0% | Ki (human 5-HT1A receptor): 173 nM | IC50 (Human 5-HT Transporter): 86.5 nM | Ki (5-HT transporter): 2.27 nM

C1=C(c2ccc3ccccc3c2)CC2CCC1N2CCOc1cccc2c1OCCO2 (stereo not drawn) [Example 4, 8-[2-(2,3-Dihydro-benzo[1,4]dioxin-5-yloxy)-ethyl]-3-naphthalen-2-yl-8-aza-bicyclo[3.2.1]oct-2-ene]
Ki (human 5-HT1A receptor): 329 nM | IC50 (Human 5-HT Transporter): 21.7 nM | Ki (5-HT transporter): 0.17 nM

COc1cc(NCCN2C3C=C(c4ccc5ccccc5c4)CC2CC3)c2ncccc2c1 (stereo not drawn) [Example 5, 6-Methoxy-N-{2-[3-(2-naphthyl)-8-azabicyclo[3.2.1]oct-2-en-8-yl]ethyl}-8-quinolinamine]
IC50 (Human 5-HT Transporter): 42.8 nM | Ki (5-HT transporter): 2.67 nM

Clc1cc(NCCN2C3C=C(c4ccc5ccccc5c4)CC2CC3)c2ncccc2c1 (stereo not drawn) [Example 6, 6-Chloro-N-{2-[3-(2-naphthyl)-8-azabicyclo[3.2.1]oct-2-en-8-yl]ethyl}-8-quinolinamine]
melting point: 205 to 206 °C | Ki (5-HT transporter): 7.5 nM

C1=C(c2ccc3ccccc3c2)CC2CCC1N2CCNc1cccc2cccnc12 (stereo not drawn) [Example 7, N-{2-[3-(2-Naphthyl)-8-azabicyclo[3.2.1]oct-2-en-8-yl]ethyl}-8-quinolinamine]
melting point: 199 to 200 °C | Ki (5-HT transporter): 1.61 nM

COc1ccc2cc(C3=CC4CCC(C3)N4CCOc3cccc4[nH]ccc34)ccc2c1 (stereo not drawn) [Example 10, 4-{2-[3-(6-Methoxy-naphthalen-2-yl)-8-aza-bicyclo[3.2.1]oct-2-en-8-yl]-ethoxy}-1H-indole]
IC50 (Human 5-HT Transporter): 58.6 nM | Ki (5-HT transporter): 1.11 nM

FC(F)(F)c1cccc(OCCN2C3C=C(c4ccc5ccccc5c4)CC2CC3)c1 (stereo not drawn) [Example 11, 3-Naphthalen-2-yl-8-[2-(3-trifluoromethyl-phenoxy)-ethyl]-8-aza-bicyclo[3.2.1]oct-2-ene]
IC50 (Human 5-HT Transporter): 191 nM | Ki (5-HT transporter): 34 nM

c1ccc2cc(C3CC4CCC(C3)N4CCOc3cccc4[nH]ccc34)ccc2c1 (stereo not drawn) [Example 12, 4-[2-(3-Naphthalen-2-yl-8-aza-bicyclo[3.2.1]oct-8-yl)-ethoxy]-1H-indole]
IC50 (Human 5-HT Transporter): 35.7 nM | Ki (5-HT transporter): 0.39 nM

c1ccc2cc(C3CC4CCC(C3)N4CCOc3cccc4cccnc34)ccc2c1 (stereo not drawn) [Example 17, 8-{2-[3-(2-Naphthyl)-8-azabicyclo[3.2.1]oct-8-yl]ethoxy}quinoline]
melting point: 110 to 113 °C | Ki (5-HT transporter): 0.13 nM

c1ccc2cc(C3CC4CCC(C3)N4CCSc3cccc4cccnc34)ccc2c1 (stereo not drawn) [Example 18, 8-({2-[3-(2-Naphthyl)-8-azabicyclo[3.2.1]oct-8-yl]ethyl}sulfanyl)quinoline]
Ki (human 5-HT1A receptor): 256 nM | IC50 (Human 5-HT Transporter): 3.5 nM | melting point: 200 to 203 °C | Ki (5-HT transporter): 0.06 nM
